Our source for the IC50 values is patent US12252490B2, “Inhibiting deubiquitinase USP25 and USP28” (Valo Health, Inc., priority 2018, dated 2025).

The target in this assay is T1, USP25 (USP25-His6) (Homo sapiens, UniProt Q9UHP3).
T1 construct: His6 (C); purchased Boston Biochem E-546
T1 sequence (Q9UHP3 1-1055): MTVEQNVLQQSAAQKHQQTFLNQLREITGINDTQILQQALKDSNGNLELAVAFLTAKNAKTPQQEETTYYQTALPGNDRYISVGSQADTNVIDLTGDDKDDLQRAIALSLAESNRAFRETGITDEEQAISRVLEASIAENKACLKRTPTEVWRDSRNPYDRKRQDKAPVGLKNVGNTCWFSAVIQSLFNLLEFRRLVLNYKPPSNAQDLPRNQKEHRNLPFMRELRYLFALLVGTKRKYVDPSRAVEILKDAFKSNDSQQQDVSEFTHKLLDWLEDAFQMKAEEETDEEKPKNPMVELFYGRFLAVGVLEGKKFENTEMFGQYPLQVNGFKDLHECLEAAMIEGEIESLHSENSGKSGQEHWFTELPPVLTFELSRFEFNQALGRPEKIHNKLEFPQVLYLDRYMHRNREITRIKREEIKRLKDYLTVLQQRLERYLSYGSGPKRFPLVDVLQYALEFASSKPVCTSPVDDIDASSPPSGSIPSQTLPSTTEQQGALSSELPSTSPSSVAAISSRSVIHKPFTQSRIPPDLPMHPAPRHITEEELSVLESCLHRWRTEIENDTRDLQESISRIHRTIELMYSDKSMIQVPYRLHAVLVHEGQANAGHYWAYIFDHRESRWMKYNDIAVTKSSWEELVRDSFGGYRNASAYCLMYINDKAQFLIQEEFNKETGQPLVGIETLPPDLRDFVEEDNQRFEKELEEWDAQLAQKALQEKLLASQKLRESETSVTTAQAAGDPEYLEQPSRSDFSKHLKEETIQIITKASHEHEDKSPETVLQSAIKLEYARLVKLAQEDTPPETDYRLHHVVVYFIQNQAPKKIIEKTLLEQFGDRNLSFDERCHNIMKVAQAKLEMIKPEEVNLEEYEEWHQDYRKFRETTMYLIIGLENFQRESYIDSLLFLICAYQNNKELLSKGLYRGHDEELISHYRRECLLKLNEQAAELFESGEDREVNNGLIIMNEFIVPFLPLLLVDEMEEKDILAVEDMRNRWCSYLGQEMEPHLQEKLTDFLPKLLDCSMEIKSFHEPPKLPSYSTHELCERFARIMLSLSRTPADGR
Briefly: Ubiquitin-Rhodamine 110 Assay for USP25 Activity, Example A-2. Format: biochemical. The note with it: USP25, 75 pM enzyme, 25 nM Ub-Rh110, 30 min preincubation; read-out: Assay A-2 (IC50 range). As for the experimental part: The assay was performed in a final volume of 9 μL in assay buffer containing 20 mM Tris-HCl (pH 8.0, (1M Tris-HCl, pH 8.0 solution; Corning 46-031-CM)), 3 mM BME (2-Mercaptoethanol; Sigma 63689-25ML-F), 0.03% BGG (0.22 μM filtered, Sigma, G7516-25G), and 0.01% Triton X-100 (Sigma, T9284-10L). Nanoliter quantities of 10-point, 3-fold serial dilution in DMSO was pre-dispensed into 1536 assay plates (Corning, #3724BC) for a final test concentration of 25 μM to 1.3 nM, top to lowest dose, respectively. Enzyme USP25, construct USP25-His6, (Boston Biochem E-546). Concentration and incubation times were optimized for the maximal signal-to-background while maintaining initial velocity conditions at a fixed substrate concentration. The final concentration of the enzyme in the assay was 75 pM. Final substrate (Ub-Rh110; Ubiquitin-Rhodamine 110, R&D Systems #U-555) concentration was 25 nM with [Ub-Rh110]<<Km. 3 μL of 2× enzyme was added to assay plates (pre-stamped with compound) preincubated with […] for 30 minutes and then 3 μL of 2×Ub-Rh110 was added to assay plates. Plates were incubated for 45 minutes at room temperature before addition of 3 μL of stop solution (final concentration of 10 mM citric acid (Sigma, 251275-500G)). Fluorescence was read on the Envision (Excitation at 485 nm and Emission at 535 nm; Perkin Elmer) or on the PheraSTAR (Excitation at 485 nm and Emission at 535 nm; BMG Labtech).
For assay formats Examples A-1a, A-1b, and A-2, data were reported as percent inhibition compared with control wells based on the following equation: % inh=1−((FLU−AveLow)/(AveHigh−AveLow)) where FLU=measured Fluorescence, AveLow=average Fluorescence of no enzyme control (n=16), and AveHigh=average Fluorescence of DMSO control (n=16). IC50 values were determined by curve fitting of the standard 4 parameter logistic fitting algorithm included in the Activity Base software package: IDBS XE Designer Model205. Data is fitted using the Levenburg Marquardt algorithm.
For `CCn1ccc2cc(C(=O)NC[C@@H](C)c3cc(F)c(N4CCNCC4)cc3F)cnc21` (single isomer, unassigned) [Example 2-1], the IC50 was 0.2 to 2 µM. Take `CCn1ccc2cc(C(=O)NC[C@H](C)c3cc(F)c(N4CCNCC4)cc3F)cnc21` (single isomer, unassigned) [Example 2-2]: the IC50 is 2 to 10 µM. In the case of `CCn1ccc2cc(C(=O)NC[C@H](C)c3cc(F)c(N4CC5CCC(C4)N5)cc3F)cnc21` (single isomer, unassigned) [Example 2-3], the IC50 was in the range of 0.2 to 2 µM. Next, `CCn1ccc2cc(C(=O)NC[C@@H](C)c3cc(F)c(N4CC5CCC(C4)N5)cc3F)cnc21` (single isomer, unassigned) [Example 2-4]: 0.2 to 2 µM; `CCn1ccc2cc(C(=O)NC[C@H](C)c3cc(F)c(N4CC5CCC(C4)N5)cc3F)nnc21` (single isomer, unassigned) [Example 4-2]: 0.2 to 2 µM. With `CCn1ccc2cc(C(=O)NC[C@@H](C)c3cc(F)c(N4CC5CCC(C4)N5)cc3F)nnc21` (single isomer, unassigned) [Example 4-3], the IC50 fell in the range of 0.2 to 2 µM. For `CCn1ccc2cc(C(=O)NCCc3cc(F)c(N4CC5CCC(C4)N5)cc3F)cnc21` [Example 1-1, N-[2-(4-[3,8-diazabicyclo[3.2.1]octan-3-yl]-2,5-difluorophenyl)ethyl]-1-ethyl-1H-pyrrolo[2,3-b]pyridine-5-carboxamide], the IC50 was in the range of 0.05 to 0.2 µM.

With `O=C(NCCc1ccc(N2CCNCC2)cc1)c1cnc2[nH]ccc2c1` [Example 1-2, N-(4-(piperazin-1-yl)phenethyl)-1H-pyrrolo[2,3-b]pyridine-5-carboxamide], the IC50 was 0.2 to 2 µM.

Turning to `Cn1ccc2cc(C(=O)NCCc3ccc(N4CCNCC4)cc3)cnc21` [Example 1-3, 1-methyl-N-(4-(piperazin-1-yl)phenethyl)-1H-pyrrolo[2,3-b]pyridine-5-carboxamide], the IC50 is 0.2 to 2 µM. Consider `CCn1ccc2cc(C(=O)NCCc3ccc(N4CCNCC4)cc3)cnc21` [Example 1-4, 1-ethyl-N-(4-(piperazin-1-yl)phenethyl)-1H-pyrrolo[2,3-b]pyridine-5-carboxamide], for which the 50% inhibitory concentration (IC50) is 0.2 to 2 µM.

Take `Nc1c(C(=O)NCCc2ccc(N3CCNCC3)cc2)cnc2[nH]ccc12` [Example 1-5, 4-amino-N-(4-(piperazin-1-yl)phenethyl)-1H-pyrrolo[2,3-b]pyridine-5-carboxamide]: the IC50 is 2 to 10 µM.

`CCn1ccc2cc(C(=O)NCCc3ccc(N4CC5CCC(C4)N5)cc3)cnc21` [Example 1-6, N-(4-(3,8-diazabicyclo[3.2.1]octan-3-yl)phenethyl)-1-ethyl-1H-pyrrolo[2,3-b]pyridine-5-carboxamide]: the concentration for half-maximal inhibition (IC50) was 0.05 to 0.2 µM.

Regarding `CCn1ccc2cc(C(=O)NCCc3cc(F)c(N4CCNCC4)cc3F)cnc21` [Example 1-7, N-(2,5-difluoro-4-(piperazin-1-yl)phenethyl)-1-ethyl-1H-pyrrolo[2,3-b]pyridine-5-carboxamide], the IC50 lay within 0.2 to 2 µM.

`O=C(NCCc1ccc(N2CCNCC2)cc1)c1cnc2c(ccn2CC(F)(F)F)c1` [Example 1-8]: the half-inhibitory concentration (IC50) is 0.05 to 0.2 µM.

On to `CC(C)(O)Cn1ccc2cc(C(=O)NCCc3cc(F)c(N4CC5CCC(C4)N5)cc3F)cnc21` [Example 1-9, N-(4-(3,8-diazabicyclo[3.2.1]octan-3-yl)-2,5-difluorophenethyl)-1-(2-hydroxy-2-methylpropyl)-1H-pyrrolo[2,3-b]pyridine-5-carboxamide], for which the IC50 is more than 10 µM. `CCn1ccc2cc(C(=O)NCCc3ccc(N4CC5CCC(C4)N5)c(F)c3)cnc21` [Example 1-10, N-(4-(3,8-diazabicyclo[3.2.1]octan-3-yl)-3-fluorophenethyl)-1-ethyl-1H-pyrrolo[2,3-b]pyridine-5-carboxamide]: the IC50 was 0.2 to 2 µM. For `CCn1cc(Cl)c2cc(C(=O)NCCc3ccc(N4CCNCC4)cc3)cnc21` [Example 3-1, 3-Chloro-1-ethyl-N-[2-[4-(piperazin-1-yl)phenyl]ethyl]-1H-pyrrolo[2,3-b]pyridine-5-carboxamide], the IC50 fell in the range of 0.05 to 0.2 µM. Take `O=C(NCCc1ccc(N2CCNCC2)cc1)c1cnc2[nH]cc(Cl)c2c1` [Example 3-2, 3-chloro-N-(4-(piperazin-1-yl)phenethyl)-1H-pyrrolo[2,3-b]pyridine-5-carboxamide]: the IC50 is 2 to 10 µM.

`CCn1ccc2cc(C(=O)NCCc3cc(F)c(N4CC5CCC(C4)N5)cc3F)nnc21` [Example 4-1, N-[2-(4-[3,8-diazabicyclo[3.2.1]octan-3-yl]-2,5-difluorophenyl)ethyl]-7-ethyl-7H-pyrrolo[2,3-c]pyridazine-3-carboxamide]: the IC50 lay within 0.2 to 2 µM.

For `CCn1cc(Cl)c2cc(C(=O)NCCc3cc(F)c(N4CC5CCC(C4)N5)cc3F)nnc21` [Example 4-4, N-(4-(3,8-diazabicyclo[3.2.1]octan-3-yl)-2,5-difluorophenethyl)-5-chloro-7-ethyl-7H-pyrrolo[2,3-c]pyridazine-3-carboxamide], the IC50 was in the range of 0.05 to 0.2 µM.
